The target of one assay is T1, human μ-calpain (Homo sapiens, UniProt P07384).
T1 construct: purchased Calbiochem
T1 sequence (P07384 1-714): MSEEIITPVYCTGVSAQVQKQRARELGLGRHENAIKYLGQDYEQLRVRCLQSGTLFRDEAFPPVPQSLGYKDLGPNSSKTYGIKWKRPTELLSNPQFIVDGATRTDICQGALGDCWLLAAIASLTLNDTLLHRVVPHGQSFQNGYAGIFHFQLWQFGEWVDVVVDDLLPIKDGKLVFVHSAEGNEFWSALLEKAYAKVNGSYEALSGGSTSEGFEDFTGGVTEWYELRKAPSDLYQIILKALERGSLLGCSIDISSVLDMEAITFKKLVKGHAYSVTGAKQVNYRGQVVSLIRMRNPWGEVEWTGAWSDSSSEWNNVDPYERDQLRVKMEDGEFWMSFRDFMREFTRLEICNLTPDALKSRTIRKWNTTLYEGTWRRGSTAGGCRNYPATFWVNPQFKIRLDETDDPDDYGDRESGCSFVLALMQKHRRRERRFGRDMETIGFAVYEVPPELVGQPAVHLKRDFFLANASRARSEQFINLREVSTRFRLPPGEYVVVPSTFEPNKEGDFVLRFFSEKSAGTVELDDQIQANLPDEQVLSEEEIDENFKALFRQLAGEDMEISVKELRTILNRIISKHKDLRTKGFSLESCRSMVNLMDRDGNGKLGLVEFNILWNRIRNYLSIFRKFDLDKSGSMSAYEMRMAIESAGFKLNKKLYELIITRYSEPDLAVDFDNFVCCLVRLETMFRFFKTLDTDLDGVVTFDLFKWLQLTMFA
T1 sequence (P04632 1-268 partner): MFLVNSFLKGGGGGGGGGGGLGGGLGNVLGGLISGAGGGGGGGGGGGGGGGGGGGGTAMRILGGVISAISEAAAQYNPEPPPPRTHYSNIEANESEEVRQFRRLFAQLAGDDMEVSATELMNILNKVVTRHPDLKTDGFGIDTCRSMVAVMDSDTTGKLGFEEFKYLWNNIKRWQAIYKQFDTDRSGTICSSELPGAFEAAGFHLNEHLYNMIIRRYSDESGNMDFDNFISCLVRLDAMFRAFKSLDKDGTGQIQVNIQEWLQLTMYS
Kind of assay: Enzymatic calpain inhibition assay. It is filed as biochemical. Particulars: substrate Suc-Leu-Tyr-AMC, read-out: Calp I IC50. The protocol: The Ki value was also determined in some cases. These criteria were used to measure the inhibitory effect of the compounds (I) on calpain I, calpain II and cathepsin B.
Enzymatic Calpain Inhibition Assay
The inhibitory properties of calpain inhibitors are tested in 100 μl of a buffer containing 100 mM imidazole pH 7.5, 5 mM L-Cystein-HCl, 5 mM CaCl2, 250 μM of the calpain fluorogenic substrate Suc-Leu-Tyr-AMC (Sigma) (Sasaki et al., J. Biol. Chem., 1984, 259, 12489-12949) dissolved in 2.5 μl DMSO and 0.5 μg of human μ-calpain (Calbiochem). The inhibitors dissolved in 1 μl DMSO are added to the reaction buffer. The fluorescence of the cleavage product 7-amino-4-methylcoumarin (AMC) is followed in a SPECTRAmax GEMINI XS (Molecular Device) fluorimeter at λex=360 nm and λem=440 nm at 30° C. during 30 min at intervals of 30 sec in 96-well plates (Greiner). The initial reaction velocity at different inhibitor concentrations is plotted against the inhibitor concentration and the IC50 values determined graphically.

Assay [1] has as its system cellular calpains in C2C12 myoblasts. Briefly: Calpain inhibition assay in C2C12 myoblasts. Type of assay: cell-based. Particulars: 2 h incubation, calcium ionophore Br-A-23187, read-out: Calp I IC50 Myoblast. How it is done:
Calpain Inhibition Assay in C2C12 Myoblasts
This assay is aimed at monitoring the ability of the substance to inhibit cellular calpains. C2C12 myoblasts are grown in 96-well plates in growth medium (DMEM, 20% foetal calf serum) until they reach confluency. The growth medium is then replaced by fusion medium (DMEM, 5% horse serum). 24 hours later the fusion medium is replaced by fusion medium containing the test substances dissolved in 1 μl DMSO. After 2 hours of incubation at 37° C. the cells are loaded with the calpain fluorogenic substrate Suc-Leu-Tyr-AMC at 400 μM in 50 μl of a reaction buffer containing 135 mM NaCl; 5 mM KCl; 4 mM CaCl2; 1 mM MgCl2; 10 mM Glucose; 10 mM HEPES pH 7.25 for 20 min at room temperature. The calcium influx, necessary to activate the cellular calpains, is evoked by the addition of 50 μl reaction buffer containing 20 μM of the calcium ionophore Br-A-23187 (Molecular Probes). The fluorescence of the cleavage product AMC is measured as described above during 60 min at 37° C. at intervals of 1 min. The IC50 values are determined as described above. Comparison of the IC50 determined in the enzymatic calpain inhibition assay to the IC50 determined in the C2C12 myoblasts calpain inhibiton assay, allows to evaluate the cellular uptake or the membrane permeability of the substance.

Assay [2] has as its system Primary fibroblasts from donors with Friedreich Ataxia (FRDA). Kind of assay: BSO assay (cell viability under BSO-induced oxidative stress). The settings on record: 24 h preincubation, 1 mM BSO; for EC50: Homo sapiens, Fibroblast. Type of assay: cell-based, human. How it is done: Primary fibroblasts were derived from donors with molecular diagnosis for Friedreich Ataxia (FRDA) and control donors with no mitochondrial disease. Cell lines were obtained from Coriell Cell Repositories (Camden, N.J.; catalog numbers GM04078, GM08402 and GM08399 respectively). All cell types were diagnosed on the molecular level for intronic […] triplet repeat length of at least 400-450 repeats using a PCR-based method. Experiments were carried out as described in the literature (M. L. Jauslin et al., Human Mol. Genet., 2002, 11, 3055-3063): Cells were seeded in microtiter plates at a density of 4'000 cells per 100 μl in growth medium consisting of 25% (v/v) M199 EBS and 64% (v/v) MEM EBS without phenol red (Bioconcept, Allschwil, Switzerland) supplemented with 10% (v/v) fetal calf serum (PAA Laboratories, Linz, Austria), 100 U/ml penicillin, 100 μg/ml streptomycin (PAA Laboratories, Linz, Austria), 10 μg/ml insulin (Sigma, Buchs, Switzerland), 10 ng/ml EGF (Sigma, Buchs, Switzerland), 10 ng/ml bFGF (PreproTech, Rocky Hill, N.J.) and 2 mM glutamine (Sigma, Buchs, Switzerland). The cells were incubated in the presence of various test compounds for 24 h before addition of L-buthionine-(S,R)-sulfoximine (BSO) to a final concentration of 1 mM. Cell viability was measured after the first signs of toxicity appeared in the BSO-treated controls (typically after 16 to 48 h). The cells were stained for 60 min at room temperature in PBS with 1.2 μM calcein AM and 4 μM ethidium homodimer (Live/Dead assay, Molecular Probes, Eugene, Oreg.). Fluorescence intensity was measured with a Gemini Spectramax XS spectrofluorimeter (Molecular Devices, Sunnyvale, Calif.) using excitation and emission wavelengths of 485 nm and 525 nm respectively.

On to `CCNC(=O)C(=O)[C@H](Cc1ccc(Cl)cc1)NC(=O)[C@H](CC(C)C)NC(=O)CCCCC1CCS[S+]1[O-]` (stereo partly shown) [Example 16], for which the IC50 (as a rule, the point on the concentration scale where inhibition reaches its midpoint) at human μ-calpain is 50 nM; in assay [1], 2000 nM. In assay [2], the EC50 (in general, the concentration that produces a half-maximal response) was found to be 4000 nM.

In the case of `CCNC(=O)C(=O)[C@H](Cc1ccc(C(C)(C)C)cc1)NC(=O)[C@H](CC(C)C)NC(=O)CCCCC1CCSS1` (stereo partly shown) [Example 120], the IC50 at human μ-calpain stood at 95 nM; in assay [1] it was 850 nM.

Turning to `CCNC(=O)C(=O)[C@H](Cc1ccc(Cl)cc1)NC(=O)[C@H](CC(C)C)NC(=O)CCCCC1CCSS1` (stereo partly shown) [Example 15], the IC50 came to 22 nM at human μ-calpain and 2500 nM in assay [1]. In assay [2], this compound had an EC50 of 4000 nM.

As to `CCNC(=O)C(=O)[C@H](Cc1ccccc1)NC(=O)[C@H](CC(C)C)NC(=O)CCCCC1CCS[S+]1[O-]` (stereo partly shown) [Example 142], the IC50 at human μ-calpain was found to be 100 nM; in assay [1] it was 20000 nM. Further, in assay [2], the midpoint of the response, the EC50, lay at 3000 nM.

With `CCNC(=O)C(=O)[C@H](Cc1ccc(C#N)cc1)NC(=O)[C@@H](NC(=O)CCCCC1CCS[S+]1[O-])C(C)C` (stereo partly shown) [Example 131], the IC50 on human μ-calpain was 180 nM; in assay [1], 7500 nM. This compound yielded an EC50 in assay [2] of 30000 nM.

On to `CCNC(=O)C(=O)[C@H](Cc1ccccc1)NC(=O)[C@H](CC(C)(C)C)NC(=O)CCCCC1CCS[S+]1[O-]` (stereo partly shown) [Example 144], for which the IC50 at human μ-calpain worked out at 80 nM; in assay [1], 5000 nM. The compound also yielded an EC50 in assay [2] of 7000 nM.

Consider `CCNC(=O)C(=O)[C@H](Cc1ccc(Cl)cc1Cl)NC(=O)[C@@H](NC(=O)CCCCC1CCS[S+]1[O-])C(C)C` (stereo partly shown) [Example 34], for which the IC50 was 500 nM on human μ-calpain and 20000 nM in assay [1].

Consider `CCNC(=O)C(=O)[C@H](Cc1ccc(Cl)cc1)NC(=O)[C@H](CC(C)C)NC(=O)CNC(=O)CCCCC1CCSS1` (stereo partly shown) [Example 176], for which the IC50 at human μ-calpain was found to be 40 nM; in assay [1], 2500 nM. The same compound showed an EC50 in assay [2] of 20000 nM.

Turning to `CCNC(=O)C(=O)[C@H](Cc1ccc(Cl)cc1)NC(=O)[C@H](CC(C)(C)C)NC(=O)CCCCC1CCS[S+]1[O-]` (stereo partly shown) [Example 28], the IC50 at human μ-calpain stood at 180 nM; in assay [1] it was 4000 nM. Further, the “BSO EC50” value in assay [2] was “inactive”.

As to `CCNC(=O)C(=O)[C@H](Cc1cccc(C(F)(F)F)c1)NC(=O)[C@H](CC(C)C)NC(=O)CCCCC1CCS[S+]1[O-]` (stereo partly shown) [Example 129], the IC50 on human μ-calpain was found to be 50 nM; in assay [1], 4000 nM. The same compound yielded an EC50 in assay [2] of 2000 nM.

With `CCNC(=O)C(=O)[C@H](Cc1ccc(Cl)cc1)NC(=O)[C@@H](NC(=O)CNC(=O)CCCCC1SC[C@@H]2NC(=O)N[C@H]12)C(C)C` (stereo partly shown) [Example 212], the IC50 at human μ-calpain came out at 150 nM; in assay [1], 3500 nM.

For the compound `CCNC(=O)C(=O)[C@H](Cc1ccc(Cl)cc1)NC(=O)[C@@H](NC(=O)CNC(=O)CCCCC1CCS[S+]1[O-])C(C)C` (stereo partly shown) [Example 170], the IC50 on human μ-calpain turned out to be 150 nM; in assay [1], 4000 nM.

Regarding `CCNC(=O)C(=O)[C@H](CC(C)C)NC(=O)[C@@H](NC(=O)CCCCC1CCSS1)C(C)C` (stereo partly shown) [Example 157], the IC50 was determined as 500 nM on human μ-calpain and 250 nM in assay [1].

With `CCNC(=O)C(=O)[C@H](Cc1ccc(F)c(F)c1)NC(=O)[C@@H](NC(=O)CCCCC1CCSS1)C(C)C` (stereo partly shown) [Example 41], the concentration for half-maximal inhibition (IC50) on human μ-calpain was 100 nM; in assay [1], 700 nM.

For `COc1ccc(C[C@H](NC(=O)[C@@H](NC(=O)CCCCC2CCS[S+]2[O-])C(C)C)C(=O)C(=O)O)cc1` (stereo partly shown) [Example 89], the IC50 at human μ-calpain is 60 nM; in assay [1], 4000 nM.

As to `CCNC(=O)C(=O)[C@@H](NC(=O)[C@@H](NC(=O)CCCCC1CCS[S+]1[O-])C(C)C)c1ccccc1` (stereo partly shown) [Example 154], on human μ-calpain, the IC50 worked out at 750 nM.

Turning to `CCNC(=O)C(=O)[C@H](Cc1ccc(C(C)(C)C)cc1)NC(=O)[C@@H](NC(=O)CCCCC1CCSS1)C(C)C` (stereo partly shown) [Example 118], the IC50 at human μ-calpain turned out to be 400 nM; in assay [1], 1800 nM.

With `CCNC(=O)C(=O)[C@H](Cc1ccc(Cl)cc1)NC(=O)[C@@H](NC(=O)CCC1CCCS1)C(C)C` (stereo partly shown) [Example 6], the IC50 on human μ-calpain turned out to be 110 nM; in assay [1], 3200 nM.

For the compound `CCNC(=O)C(=O)[C@H](Cc1ccc(I)cc1)NC(=O)[C@H](CC(C)C)NC(=O)CCCCC1CCS[S+]1[O-]` (stereo partly shown) [Example 79], the IC50 came out at 15 nM on human μ-calpain and 500 nM in assay [1].

As for `CCNC(=O)C(=O)[C@H](Cc1ccc(C(F)(F)F)cc1)NC(=O)[C@H](CC(C)C)NC(=O)CCCCC1CCS[S+]1[O-]` (stereo partly shown) [Example 125], the IC50 at human μ-calpain stood at 40 nM; in assay [1], 800 nM.

Turning to `Cc1ccc(S(=O)(=O)CNC(=O)C(=O)[C@H](Cc2ccc(Cl)cc2)NC(=O)[C@@H](NC(=O)CCCCC2CCS[S+]2[O-])C(C)C)cc1` (stereo partly shown) [Example 14], the IC50 at human μ-calpain worked out at 200 nM; in assay [1], 1200 nM.

With `CCNC(=O)C(=O)[C@H](CC1CCCCC1)NC(=O)[C@@H](NC(=O)CCCCC1CCSS1)C(C)C` (stereo partly shown) [Example 149], the values for the IC50 (at human μ-calpain; in assay [1]) were 250 nM and 3000 nM, respectively.

Turning to `CCNC(=O)C(=O)[C@H](Cc1ccc(Cl)cc1)NC(=O)[C@@H](NC(=O)CNC(=O)CCCCC1CCSS1)C(C)C` (stereo partly shown) [Example 169], the values for the IC50 (on human μ-calpain; in assay [1]) were 25 nM and 1000 nM, respectively.

Consider `CCNC(=O)C(=O)[C@H](Cc1ccc(Cl)c(Cl)c1)NC(=O)[C@@H](NC(=O)CCCCC1CCSS1)C(C)C` (stereo partly shown) [Example 29], for which the values for the IC50 (at human μ-calpain; in assay [1]) were 85 nM and 10000 nM, respectively.
